# Results as given in patent EP0067913B1, “Composition for the treatment of acne” (RUSH-HAMPTON INDUSTRIES, INC., priority 1981, dated 1982).
# Assays:
# [1] = tested on: Pityrosporum ovale ATCC 14521; assay: Fungicidal activity test in corn oil medium (Sabouraud Dextrose broth and corn oil); assay type: cell-based; conditions: concentrations of 200 ppm or greater in the upper oil layer; 37°C, aerobic conditions, 7 days
# Experimental: This organism is cultured in a corn oil medium prepared with Sabouraud Dextrose broth and Mazola@ Corn Oil. Solutions of naringenin and this broth were made in which the concentration of naringenin in the upper oil layer was 200 ppm, 400 ppm, 600 ppm, and 800 ppm. Three solutions of each concentration were tested. Each tube was inoculated with a loop full of the test organism and incubated at 37°C under aerobic conditions for 7 days.
# [2] = Water solubility (qualitative comparison); assay type: physicochemical; conditions: qualitative comparison with partially hydrolyzed naringin
compound,measurement,setting,value
O=C1C[C@@H](c2ccc(O)cc2)Oc2cc(O)cc(O)c21 [naringenin],effect on the growth of Pityrosporum ovale ATCC 14521,[1],severely retarded the growth
same,water solubility,[2],less than those of partially hydrolyzed naringin
